Assay results taken from patent US11473153B2, “Device and methods of using device for separation of bacteria from complex samples” (priority 2014, dated 2022).
Read-outs that look alike come from different tables or passages of the source.

Key:
bacteria = settings: cited from earlier work
[1] = tested on: unspecific bacteria grown from dirt
S. typhimurium [2] = settings: Eth20%/Media + Salmonella/Media, 1.5 ml device
E. coli O157H7 = settings: Eth20%/GroundMeat + O157H7/Media, 30 min, 1.5 ml device
S. typhimurium [3] = assay: Microliter-scale sample chamber device, separation run (FIG. 12); format: cell-based; settings: 30 minutes
Procedure: Experimental and control separation runs were performed in the device and results recorded as disclosed below. FIG. 12 depicts an experimental run on the device in which 2 mM of alpha-methylaspartate (chemo-attractant) was diluted in chemotaxis buffer was introduced in the extraction chamber. […] Deionized water was introduced in the repellent chamber. After 30 minutes, the contents of each chamber was recovered and the amount of bacteria in each chamber counted.

S. typhimurium [4] = assay: Four-channel membrane microfluidic chip, separation by chemoattractant (FIG. 9B); format: cell-based
Description: FIG. 9A depicts a diagram of a microfluidic chip with four channels that overlap in the vertical direction, with each channel being separated by a semipermeable membrane. Each channel has an inlet/outlet on either end of the chip, each channel can be filled using regular pipettes. The four channels overlap in the vertical direction to maximize contact are amongst channels and optimizes the time required for the chemical gradients to form. The membranes between the channels prevent fluid flow while allowing the chemical gradients to form and bacteria to migrate between the channels. […] The contents of each channel was extracted after approximately 30 minutes and the bacterial density measured using a cell counter (left hand bar in each column). […] Control experiments were also performed to evaluate random dispersion of bacteria to channels 1 and 3 filled with buffer; very few of the bacteria moved away from channel 2 without the present of the chemoattractant (middle bars in each column).

SMILES	Chemoattractant (bacteria for which the substance is one) (bacteria)	Chemorepellent (bacteria for which the substance is one) (bacteria)	further results
OC[C@H]1O[C@H](O[C@H]2[C@H](O)[C@@H](O)C(O)O[C@@H]2CO)[C@H](O)[C@@H](O)[C@@H]1O (mixture of isomers) [Maltose]	E. coli	(no effect on S. typhimurium)	
CC(=O)O [Acetate]	C. vinosum	E. coli, S. typhimurium	
O=C(O)c1ccccc1 [Benzoate]	P. putida	E. coli, S. typhimurium	
O=C(O)CC(O)(CC(=O)O)C(=O)O [Citrate]	S. typhimurium	(no effect on E. coli)	
[Co+2] [Co^2+]	(no effect on S. typhimurium)	E. coli	
CCO [Eth20%, Ethanol]			movement of bacteria over time ([1]; 50% ethanol chemorepellent gradient, FIG. 4B/4C): clearly seen moving away from the ethanol; state of bacteria next to the maximum concentration of ethanol ([1]; 50% ethanol chemorepellent in horizontal channel, FIG. 4B): non-motile and putatively dead; E: extraction efficiency (S. typhimurium [2]; 25 min): 76.4% + −8%; E: extraction efficiency (S. typhimurium [2]; 30 min): 87.9% + −7%; E: extraction efficiency (E. coli O157H7; Meat diluted 1:1): 77.60%; E: extraction efficiency (E. coli O157H7; Meat diluted 1:2): 109.80%; E: extraction efficiency (E. coli O157H7; Meat diluted 1:3): 57.00%
[H+] [H^+]	R. sphaeroids	E. coli, C. vinosum	
CC(C)C[C@H](N)C(=O)O [Leucine]	B. subtilis	E. coli, S. typhimurium	
[Ni+2] [Ni^2]	(no effect on S. typhimurium)	E. coli	
O [OH^−]	R. sphaeroids	E. coli, C. vinosum	
Oc1ccccc1 [Phenol]	E. coli	S. typhimurium	
N[C@@H](Cc1c[nH]c2ccccc12)C(=O)O [Tryptophan]	B. subtilis, C. vinosum	E. coli, S. typhimurium	
CC(C)[C@H](N)C(=O)O [Valine]	B. subtilis	E. coli, S. typhimurium	
CC(N)(CC(=O)O)C(=O)O (stereo not drawn) [α-methyl aspartate]			concentration of bacteria in the extraction chamber normalized to the initial concentration (S. typhimurium [3]; 2 mM in chemotaxis buffer in extraction chamber, sample chamber about 110 μL): about 2 times higher than the initial concentration; bacteria in the repellent chamber (S. typhimurium [3]; 2 mM in extraction chamber, deionized water in repellent chamber): no bacteria were found; bacterial density per channel (cell counter) (S. typhimurium [4]; 2 mM in channel 1, S. typhimurium in channel 2, buffer in channel 3, approximately 30 minutes): most bacteria crossed over to the channel containing maximal concentration of chemoattractant; bacterial density per channel, gravity control (S. typhimurium [4]; buffer and chemoattractant introduced through the opposite channels): the results were the same
